Values of other authors as cited in US11077096B2, “Modified release compositions comprising tacrolimus” (Veloxis Pharmaceuticals A/S, priority 2003, dated 2021).

Legend:
[1] = not given; remark: listed apart in the source

SMILES: C=CC[C@@H]1/C=C(\C)C[C@H](C)C[C@H](OC)[C@H]2O[C@@](O)(C(=O)C(=O)N3CCCC[C@H]3C(=O)OC(/C(C)=C/[C@@H]3CC[C@@H](O)[C@H](OC)C3)[C@H](C)[C@@H](O)CC1=O)[C@H](C)C[C@@H]2OC (stereo partly drawn) [Tacrolimus]
- Solubility in chloroform (chloroform): very soluble
- Solubility in ethanol (ethanol): freely soluble
- Solubility in methanol (methanol): very soluble
- Solubility in water (water): practically insoluble
- bioavailability ([1]; after oral administration): ≤ 20%
- mean time-to-peak concentration (tmax) ([1]; oral administration, healthy subjects or kidney or liver transplanted patients): 1 to 2 h
